Paper PMC8151276, “An Integrated Approach toward NanoBRET Tracers for Analysis of GPCR Ligand Engagement” (Molecules, 2021)

Experiments:
Assay type in all cases: binding
P2RY14 = biological target: T1, P2RY14 (Homo sapiens, UniProt Q15391); assay: NanoBRET screen HiBiT-P2RY14 in HEK293
T1 construct: purchased Promega (in-house HiBiT-GPCR construct library, NanoBRET)
T1 sequence (Q15391 1-338): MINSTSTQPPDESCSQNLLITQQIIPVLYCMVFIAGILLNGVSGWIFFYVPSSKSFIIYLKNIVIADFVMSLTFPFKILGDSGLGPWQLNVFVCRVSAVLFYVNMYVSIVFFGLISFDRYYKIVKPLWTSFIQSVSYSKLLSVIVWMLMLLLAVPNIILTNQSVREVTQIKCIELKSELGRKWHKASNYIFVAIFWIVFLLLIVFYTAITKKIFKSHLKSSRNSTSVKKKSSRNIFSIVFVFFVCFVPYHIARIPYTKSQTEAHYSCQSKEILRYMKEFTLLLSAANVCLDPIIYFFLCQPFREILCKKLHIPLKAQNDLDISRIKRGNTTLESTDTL
Experimental: (§1) Each tracer candidate was screened across the entire library of HiBiT-GPCR constructs using NanoBRET as the detection modality. As depicted in Figure 4A, the specificity of interactions was evaluated through decrease in BRET due to competitive displacement of a bound tracer by excess parental compound. Each tracer was analyzed for binding to each HiBiT-GPCR fusion in the absence and in the presence of competing parental compound. Briefly, HEK293 cells were transfected with HiBiT-GPCR constructs diluted into promoterless DNA to reduce expression and maximize translocation to the cell surface. Each tracer candidate was then screened at concentrations of 1 μM and 0.1 μM across cells expressing these fusions. Cells were treated for 1.5 h with tracer either alone or in the presence of 20 μM competing parental compound (i.e., control). BRET was measured upon addition of purified LgBiT and subsequent complementation with HiBiT genetically fused to a GPCR. The specificity of interactions was assessed through a decrease in BRET signal due to competitive displacement of the bound tracer. To further gauge the robustness of these interactions, the fold response over the control (i.e., BRETtracer/BRETcontrol) was calculated. We chose a 1.5-fold response, which translates to ≥7-fold signal over noise as the minimal threshold required to score an interaction as positive. […]. Below we highlight the screening results obtained for our exemplary fluorescent tracers based on Clozapine, Amitriptyline and AZD1283.
(§2) HiBiT-GPCR DNA constructs were diluted in 10 mM Tris pH 8 to a final concentration of 0.01 μg/μL, arrayed in 96-well plates and stored at −20 °C. For transfection, HEK293 cells were suspended in Opti-MEM (without phenol red) supplemented with 2% fetal bovine serum (Seradigm) and 100 units/mL penicillin–streptomycin (Gibco) at a final concentration of 220,000 cells/mL and dispensed into white 96-well plates at 90 μL/well. Subsequent transfections and screens were carried using an Agilent Bravo Automated Liquid Handling Platform. First, the 96-well HiBiT DNA arrays were diluted 25-fold in Opti-MEM (without serum or phenol red) to a final concentration of 0.0004 μg/μL and 20 μL of the diluted DNAs were transferred into new 96-well plates. Next, promoterless carrier DNA (1 μg/μL) was diluted 25-fold (0.04 μg/μL) and then dispensed into the diluted arrays at 20 μL/well. Following brief mixing, Viafect transfection reagent (Promega) diluted 16-fold into Opti-MEM was dispensed into the plates at 40 μL/well. After mixing by pipetting, plates were incubated for 10 min on the pipetting station deck. The DNA-transfection reagent complexes were then added to plates containing cells. To facilitate the screen, 10 μL of DNA-transfection reagent complexes were added in duplicates to the top 4 and bottom 4 rows, resulting in two identical 48-well arrays per plate. Plates with transfected cells were incubated for 18–20 h at 37 °C/5% CO2. A screen of each tracer across the entire library using two different concentrations requires duplicate plates of transfected cells. Depending on the number of tracers being screened, transfections can be scaled up using the same ratios. The next day, for each tracer, four 20× screening solutions in tracer dilution buffer (Promega) were prepared: two duplicates at final concentration of 20 μM and two duplicates at a final concentration of 2 μM. A competing unmodified compound was added to one of each duplicate at a final concentration of 400 μM. The four resulting solutions were diluted 4-fold in Opti-MEM without serum or phenol red to generate 5× solutions (5 µM and 0.5 µM tracer +/− 100 μM competing compound). To screen the library, a BioTek MultiFlo FX liquid dispenser was used to dispense 22.5 µL of tracer solution to the top 4 rows and 22.5 µL tracer + competing compound solution to the 4 bottom rows. Plates were briefly mixed on an orbital shaker and incubated for 1.5 h at room temperature. […]

CCR9 = biological target: T2, CCR9 (Homo sapiens, UniProt P51686); assay: NanoBRET screen HiBiT-CCR9 in HEK293
T2 construct: purchased Promega (in-house HiBiT-GPCR construct library, NanoBRET)
T2 sequence (P51686 1-369): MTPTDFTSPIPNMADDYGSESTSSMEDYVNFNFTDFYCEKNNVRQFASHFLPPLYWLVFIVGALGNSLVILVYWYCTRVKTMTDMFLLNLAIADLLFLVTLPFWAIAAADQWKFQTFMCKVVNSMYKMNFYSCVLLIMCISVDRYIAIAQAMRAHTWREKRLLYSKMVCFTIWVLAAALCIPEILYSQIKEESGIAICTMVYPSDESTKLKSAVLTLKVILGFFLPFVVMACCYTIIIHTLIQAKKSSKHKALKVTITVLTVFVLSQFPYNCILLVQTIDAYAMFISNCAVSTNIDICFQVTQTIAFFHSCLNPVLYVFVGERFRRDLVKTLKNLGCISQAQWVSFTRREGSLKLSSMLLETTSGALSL
Experimental: as §1, §2

CCR5 = biological target: T3, CCR5 (Homo sapiens, UniProt P51681); assay: NanoBRET screen HiBiT-CCR5 in HEK293
T3 construct: purchased Promega (in-house HiBiT-GPCR construct library, NanoBRET)
Experimental: as §1, §2

BDKRB1 = biological target: T4, BDKRB1 (Homo sapiens, UniProt P46663); assay: NanoBRET screen HiBiT-BDKRB1 in HEK293
T4 construct: purchased Promega (in-house HiBiT-GPCR construct library, NanoBRET)
T4 sequence (P46663 1-353): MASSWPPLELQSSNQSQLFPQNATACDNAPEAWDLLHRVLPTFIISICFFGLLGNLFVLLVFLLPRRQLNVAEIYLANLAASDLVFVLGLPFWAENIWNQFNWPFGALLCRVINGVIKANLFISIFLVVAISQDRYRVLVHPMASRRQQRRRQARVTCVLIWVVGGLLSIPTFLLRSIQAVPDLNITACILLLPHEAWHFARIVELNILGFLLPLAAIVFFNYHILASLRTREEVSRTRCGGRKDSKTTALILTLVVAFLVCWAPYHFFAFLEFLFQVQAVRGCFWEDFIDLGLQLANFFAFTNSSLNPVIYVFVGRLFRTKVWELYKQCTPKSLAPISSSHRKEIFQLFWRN
Experimental: as §1, §2

[1] = tracer at 0.1μM, listed as amitriptyline-b-2-NB590
[2] = tracer at 1μM, listed as amitriptyline-b-2-NB590

T3 sequence (P51681 whole entry): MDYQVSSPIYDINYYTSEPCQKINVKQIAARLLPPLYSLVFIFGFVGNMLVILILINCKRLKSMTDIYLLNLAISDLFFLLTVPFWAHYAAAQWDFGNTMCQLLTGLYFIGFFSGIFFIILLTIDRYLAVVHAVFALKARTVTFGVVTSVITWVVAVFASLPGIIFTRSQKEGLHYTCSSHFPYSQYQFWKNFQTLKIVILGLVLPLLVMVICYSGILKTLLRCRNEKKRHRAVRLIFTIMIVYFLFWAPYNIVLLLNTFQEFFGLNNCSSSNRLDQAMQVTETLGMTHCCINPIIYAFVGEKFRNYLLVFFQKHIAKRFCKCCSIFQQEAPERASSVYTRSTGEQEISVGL

Structure (SMILES): CN1CCN(C2=Nc3cc(Cl)ccc3Nc3ccc(CNC(=O)CCOCCOCCOCCOCCNC(=O)CCc4ccc5n4[B-](F)(F)[N+]4=C(c6ccc[nH]6)C=CC4=C5)cc32)CC1 [Clozapine-b-2-NB590]
- NanoBRET Fold Response (P2RY14; P2RY14, 0.1μM tracer): 1.01
- NanoBRET Fold Response (P2RY14; P2RY14, 1μM tracer): 0.99
- NanoBRET Fold Response (CCR9; CCR9, 0.1μM tracer): 1.01
- NanoBRET Fold Response (CCR9; CCR9, 1μM tracer): 0.92
- NanoBRET Fold Response (CCR5; CCR5, 0.1μM tracer): 1.05
- NanoBRET Fold Response (CCR5; CCR5, 1μM tracer): 0.92
- NanoBRET Fold Response (BDKRB1; BDKRB1, 0.1μM tracer): 0.99
- NanoBRET Fold Response (BDKRB1; BDKRB1, 1μM tracer): 0.92

Structure (SMILES): CN(C)CCC=C1c2ccccc2CCc2ccc(C(=O)NCCNC(=O)CCOCCOCCOCCOCCNC(=O)CCc3ccc4n3[B-](F)(F)[N+]3=C(c5ccc[nH]5)C=CC3=C4)cc21 [Amitriptyline-b-2-NB590]
- NanoBRET Fold Response (P2RY14; [1]): 1.12
- NanoBRET Fold Response (P2RY14; [2]): 0.77
- NanoBRET Fold Response (CCR9; [1]): 0.81
- NanoBRET Fold Response (CCR9; [2]): 0.84
- NanoBRET Fold Response (CCR5; [1]): 1.14
- NanoBRET Fold Response (CCR5; [2]): 1.07
- NanoBRET Fold Response (BDKRB1; [1]): 1.14
- NanoBRET Fold Response (BDKRB1; [2]): 1.33

Structure (SMILES): CCOC(=O)c1cc(C#N)c(N2CCC(C(=O)NS(=O)(=O)Cc3ccccc3/C=C/C(=O)NCCNC(=O)CCc3ccc4n3[B-](F)(F)[N+]3=C(c5ccc[nH]5)C=CC3=C4)CC2)nc1C [AZD1283-1-NB590]
- NanoBRET Fold Response (P2RY14; P2RY14, 0.1μM): 1.14
- NanoBRET Fold Response (P2RY14; P2RY14, 1μM): 1.18
- NanoBRET Fold Response (CCR9; CCR9, 0.1μM): 1.13
- NanoBRET Fold Response (CCR9; CCR9, 1μM): 1.10
- NanoBRET Fold Response (CCR5; CCR5, 0.1μM): 1.02
- NanoBRET Fold Response (CCR5; CCR5, 1μM): 1.04
- NanoBRET Fold Response (BDKRB1; BDKRB1, 0.1μM): 1.05
- NanoBRET Fold Response (BDKRB1; BDKRB1, 1μM): 1.04

Structure (SMILES): CC(C)N(CC[C@H](c1ccccc1)c1cc(CCNC(=O)CCOCCOCCOCCOCCNC(=O)CCc2ccc3n2[B-](F)(F)[N+]2=C(c4ccc[nH]4)C=CC2=C3)ccc1O)C(C)C [Tolterodine-2-NB590]
- NanoBRET Fold Response (P2RY14; P2RY14, tracer 0.1μM): 0.93
- NanoBRET Fold Response (P2RY14; P2RY14, tracer 1μM): 1.08
- NanoBRET Fold Response (CCR9; CCR9, tracer 0.1μM): 1.12
- NanoBRET Fold Response (CCR9; CCR9, tracer 1μM): 0.95
- NanoBRET Fold Response (CCR5; CCR5, tracer 0.1μM): 1.03
- NanoBRET Fold Response (CCR5; CCR5, tracer 1μM): 1.01
- NanoBRET Fold Response (BDKRB1; BDKRB1, tracer 0.1μM): 0.99
- NanoBRET Fold Response (BDKRB1; BDKRB1, tracer 1μM): 0.79

Structure (SMILES): CC(C)N(CC[C@H](c1ccccc1)c1cc(CCNC(=O)c2ccc(CNC(=O)CCc3ccc4n3[B-](F)(F)[N+]3=C(c5ccc[nH]5)C=CC3=C4)cc2)ccc1O)C(C)C [Tolterodine-BZ-NB590]
- NanoBRET Fold Response (P2RY14; P2RY14, tracer 0.1μM): 0.86
- NanoBRET Fold Response (P2RY14; P2RY14, tracer 1μM): 0.88
- NanoBRET Fold Response (CCR9; CCR9, tracer 0.1μM): 0.74
- NanoBRET Fold Response (CCR9; CCR9, tracer 1μM): 1.14
- NanoBRET Fold Response (CCR5; CCR5, tracer 0.1μM): 1.09
- NanoBRET Fold Response (CCR5; CCR5, tracer 1μM): 0.97
- NanoBRET Fold Response (BDKRB1; BDKRB1, tracer 0.1μM): 1.02
- NanoBRET Fold Response (BDKRB1; BDKRB1, tracer 1μM): 0.85
